Here are results for 22 molecules from patent US20260216164A1, “INDOLE COMPOUND DECOMPOSING IKZF2, AND USE THEREOF” (KOREA RESEARCH INSTITUTE OF CHEMICAL TECHNOLOGY, priority 2023, published 2026).

The target of one assay is Helios (IKZF2) (Homo sapiens, UniProt Q96SW2+Q9UKS7). Briefly: Screening of Helios protein degraders using Nano-Glo HiBiT cell line (HiBiT-IKZF2). Type of assay: cell-based. Particulars: 6 hours, HiBiT-Helios knock-in Jurkat cells; for remaining activity at 1 µM: compound 1 μM, read-out: HiBiT-IKZF2 Residual amount of Helios (%) 1 μM; for remaining activity at 10 µM: compound 10 μM, read-out: HiBiT-IKZF2 Residual amount of Helios (%) 10 μM.
Chain of Helios (IKZF2) (Q9UKS7 whole entry): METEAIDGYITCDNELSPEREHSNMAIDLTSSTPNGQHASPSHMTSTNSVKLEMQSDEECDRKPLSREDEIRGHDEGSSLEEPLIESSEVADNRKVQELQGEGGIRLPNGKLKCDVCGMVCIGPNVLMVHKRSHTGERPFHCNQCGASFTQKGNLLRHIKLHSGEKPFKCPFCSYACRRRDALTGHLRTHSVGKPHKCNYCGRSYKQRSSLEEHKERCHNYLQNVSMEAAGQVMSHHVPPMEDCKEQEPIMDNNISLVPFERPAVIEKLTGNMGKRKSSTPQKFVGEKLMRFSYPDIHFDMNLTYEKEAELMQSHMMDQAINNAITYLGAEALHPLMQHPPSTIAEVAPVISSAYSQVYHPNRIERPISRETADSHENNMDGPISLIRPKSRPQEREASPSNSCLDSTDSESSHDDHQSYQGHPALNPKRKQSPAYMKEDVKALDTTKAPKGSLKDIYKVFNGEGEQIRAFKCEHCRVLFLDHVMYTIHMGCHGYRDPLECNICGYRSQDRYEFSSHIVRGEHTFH
Chain of Helios (IKZF2) (Q96SW2 whole entry): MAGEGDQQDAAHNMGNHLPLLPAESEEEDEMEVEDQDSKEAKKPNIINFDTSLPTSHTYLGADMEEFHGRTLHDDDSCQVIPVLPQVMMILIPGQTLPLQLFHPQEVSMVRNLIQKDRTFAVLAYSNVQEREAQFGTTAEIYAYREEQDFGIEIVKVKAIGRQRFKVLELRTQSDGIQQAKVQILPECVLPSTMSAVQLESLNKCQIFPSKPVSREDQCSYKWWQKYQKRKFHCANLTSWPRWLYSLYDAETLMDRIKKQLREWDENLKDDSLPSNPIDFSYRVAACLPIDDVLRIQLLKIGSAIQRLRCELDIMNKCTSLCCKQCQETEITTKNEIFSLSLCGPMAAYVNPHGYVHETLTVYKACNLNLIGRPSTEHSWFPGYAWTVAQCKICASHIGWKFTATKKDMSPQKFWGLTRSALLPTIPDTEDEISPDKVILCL
Chain of Helios (IKZF2) (Q16531 whole entry partner): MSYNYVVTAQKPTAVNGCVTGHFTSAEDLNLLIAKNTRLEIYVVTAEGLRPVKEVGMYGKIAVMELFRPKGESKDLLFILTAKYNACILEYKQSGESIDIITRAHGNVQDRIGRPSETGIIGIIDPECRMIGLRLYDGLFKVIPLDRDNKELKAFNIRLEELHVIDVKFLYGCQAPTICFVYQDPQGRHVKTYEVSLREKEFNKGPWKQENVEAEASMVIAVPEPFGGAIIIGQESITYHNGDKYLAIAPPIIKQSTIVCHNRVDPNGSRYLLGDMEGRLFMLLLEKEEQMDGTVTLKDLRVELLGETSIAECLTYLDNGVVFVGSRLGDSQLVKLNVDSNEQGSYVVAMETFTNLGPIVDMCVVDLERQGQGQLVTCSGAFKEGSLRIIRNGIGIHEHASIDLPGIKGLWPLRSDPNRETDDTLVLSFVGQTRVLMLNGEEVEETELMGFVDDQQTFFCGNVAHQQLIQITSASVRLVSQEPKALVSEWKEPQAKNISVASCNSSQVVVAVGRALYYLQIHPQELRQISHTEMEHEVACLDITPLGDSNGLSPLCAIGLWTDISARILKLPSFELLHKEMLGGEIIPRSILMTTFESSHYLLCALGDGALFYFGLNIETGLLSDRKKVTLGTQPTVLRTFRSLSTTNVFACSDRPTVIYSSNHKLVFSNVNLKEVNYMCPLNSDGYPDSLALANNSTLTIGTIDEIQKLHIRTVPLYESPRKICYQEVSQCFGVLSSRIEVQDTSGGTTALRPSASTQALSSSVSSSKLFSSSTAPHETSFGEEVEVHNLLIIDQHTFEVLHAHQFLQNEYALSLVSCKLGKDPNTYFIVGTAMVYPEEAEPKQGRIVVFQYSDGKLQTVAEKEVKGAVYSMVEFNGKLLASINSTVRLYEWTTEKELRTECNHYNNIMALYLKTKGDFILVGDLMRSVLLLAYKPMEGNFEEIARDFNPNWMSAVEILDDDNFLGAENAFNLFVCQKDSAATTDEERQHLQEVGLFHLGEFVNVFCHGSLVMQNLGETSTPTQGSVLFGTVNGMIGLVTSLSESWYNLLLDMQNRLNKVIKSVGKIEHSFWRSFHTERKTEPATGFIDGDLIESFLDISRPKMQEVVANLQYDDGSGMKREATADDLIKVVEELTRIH

Another assay addresses IKZF2 (Helios) (Homo sapiens, UniProt Q96SW2+Q9UKS7). In words: Screening of DC50 (nM) and Dmax (%) using WB-IKZF2 cell line (Western blot). The class given is cell-based. The arrangement: endogenous in cells. The following applies: 6 hours; for DC50: class symbols, read-out: WB-IKZF2 DC 50. As to the method:
Experimental Example 2. Screening of DC50 (nM) and Dmax (%) Using WB-IKZF2 Cell Line
Candidate degraders were serially diluted and treated in cells cultured in complete medium, followed by incubation for 6 hours at 37° C. in a CO2 incubator. After 6 hours, the cells were harvested and lysed in RIPA buffer (150 mM NaCl, 1% Triton X-100, 1% sodium deoxycholate, 0.1% SDS, 50 mM Tris-HCl pH 7.5, and 2 mM EDTA) containing a protease inhibitor cocktail (Roche). The mixture was vortexed every 10 minutes and incubated on ice for 30 minutes, followed by centrifugation at 13,000 rpm for 10 minutes at 4° C. to isolate proteins. The isolated proteins were quantified using the Bradford assay (Bio-Rad, 5000006). Proteins were separated on 8% SDS-polyacrylamide gel, transferred onto nitrocellulose membranes (Amersham, 10600002), and incubated with primary antibodies at 4° C. for 18 hours. The following primary antibodies were used: anti-Helios rabbit monoclonal antibody (Cell Signaling, 42427, 1:3000) and anti-β-actin mouse monoclonal antibody (Santa Cruz, sc-47778, 1:5000). β-actin was used as a loading control. The next day, the membranes were washed with 1×TBST for 30 minutes and incubated with HRP-conjugated secondary antibodies corresponding to the primary antibodies at room temperature for 1 hour. The following secondary antibodies were used: anti-mouse IgG HRP-linked antibody (Sigma, A9044, 1:5000) and anti-rabbit IgG HRP-linked antibody (Cell Signaling, 7074, 1:5000). After washing with 1×TBST for 30 minutes, protein expression was visualized using the Pierce ECL Western blotting substrate (Thermo Fisher, 32106), and images were captured using a chemiluminescence image analysis system (GE Healthcare, AI680). The obtained images were quantified using the ImageJ software.

Chain of IKZF2 (Helios) (Q9UKS7 whole entry): as the sequence (Q9UKS7 whole entry) above
Chain of IKZF2 (Helios) (Q96SW2 whole entry): as the sequence (Q96SW2 whole entry) above
Chain of IKZF2 (Helios) (Q16531 whole entry partner): as the sequence (Q16531 whole entry partner) above

Consider `Cc1c(C(=O)N2CCC(c3ccc4c(c3)CN(C3CCC(=O)NC3=O)C4=O)CC2)[nH]c2cc(O)ccc12` (stereo not drawn) [Compound 47, 3-(5-(1-(6-hydroxy-3-methyl-1H-indole-2-carbonyl)piperidin-4-yl)-1-oxoinsoindolin-2-yl)piperidine-2,6-dione], for which, at Helios (IKZF2), the remaining activity at 1 µM worked out at 27.9% and the remaining activity at 10 µM worked out at 24%. Besides, at IKZF2 (Helios), the DC50 was 100 to 1000 nM.
Consider `Cc1c(C(=O)N2CCC(c3ccc4c(c3)CN(C3CCC(=O)NC3=O)C4=O)CC2)[nH]c2cc(C(F)(F)F)ccc12` (stereo not drawn) [Compound 48, 3-(5-(1-(3-methyl-6-(trifluoromethyl)-1H-indole-2-carbonyl)piperidin-4-yl)-1-oxoinsoindolin-2-yl)piperidine-2,6-dione], for which, at Helios (IKZF2), the remaining activity at 10 µM worked out at 8.21%. At IKZF2 (Helios), the DC50 was in the range of 10 to 100 nM.
`Cc1c(C(=O)N2CCC(c3ccc4c(c3)CN(C3CCC(=O)NC3=O)C4=O)CC2)[nH]c2cc(Br)ccc12` (stereo not drawn) [Compound 49, 3-(5-(1-(6-bromo-3-methyl-1H-indole-2-carbonyl)piperidin-4-yl)-1-oxoinsoindolin-2-yl)piperidine-2,6-dione]: the remaining activity at 10 µM at Helios (IKZF2) amounted to 8.67%. Also, on IKZF2 (Helios), the DC50 was in the range of 100 to 1000 nM.
Taken in the same sequence, the figures for `Cc1c(C(=O)N2CCC(c3ccc4c(c3)CN(C3CCC(=O)NC3=O)C4=O)CC2)[nH]c2cc(C#N)ccc12` (stereo not drawn) [Compound 52, 2-(4-(2-(2,6-dioxopiperidin-3-yl)-1-oxoindolin-5-yl)piperidine-1-carbonyl)-3-methyl-1H-indole-6-carbonitrile] were 10.8% and 10 to 100 nM.
Taken in the same sequence, the figures for `Cc1c(C(=O)N2CCC(c3ccc4c(c3)CN(C3CCC(=O)NC3=O)C4=O)CC2)[nH]c2cc(OC(F)(F)F)ccc12` (stereo not drawn) [Compound 53, 3-(5-(1-(3-methyl-6-(trifluoromethoxy)-1H-indole-2-carbonyl)piperidin-4-yl)-1-oxoinsoindolin-2-yl)piperidine-2,6-dione] were 7.7% and 100 to 1000 nM.
For `Cc1c(C(=O)N2CCC(c3ccc4c(c3)CN(C3CCC(=O)NC3=O)C4=O)CC2)[nH]c2cc([N+](=O)[O-])ccc12` (stereo not drawn) [Compound 55, 3-(5-(1-(3-methyl-6-nitro-1H-indole-2-carbonyl)piperidin-4-yl)-1-oxoinsoindolin-2-yl)piperidine-2,6-dione], the remaining activity at 10 µM on Helios (IKZF2) was found to be 5.1%. In addition, at IKZF2 (Helios), the Dmax amounted to 100% and the DC50 is under 10 nM.
With `Cc1c(C(=O)N2CCC(c3ccc4c(c3)CN(C3CCC(=O)NC3=O)C4=O)CC2)[nH]c2c(C)c(Cl)ccc12` (stereo not drawn) [Compound 100, 3-(5-(1-(6-chloro-3,7-dimethyl-1H-indole-2-carbonyl)piperidin-4-yl)-1-oxoinsoindolin-2-yl)piperidine-2,6-dione], at Helios (IKZF2), the remaining activity at 1 µM came to 16.8% and the remaining activity at 10 µM worked out at 11.4%.
Taken in the same sequence, the figures for `Cc1cc2c(C)c(C(=O)N3CCC(c4ccc5c(c4)CN(C4CCC(=O)NC4=O)C5=O)CC3)[nH]c2cc1Cl` (stereo not drawn) [Compound 103, 3-(5-(1-(6-chloro-3,5-dimethyl-1H-indole-2-carbonyl)piperidin-4-yl)-1-oxoinsoindolin-2-yl)piperidine-2,6-dione] were 26.8% and 20.6%.
In the same order, the values of `O=C1CCC(N2Cc3cc(C4CCN(C(=O)c5[nH]c6cc(Cl)ccc6c5CO)CC4)ccc3C2=O)C(=O)N1` (stereo not drawn) [Compound 105, 3-(5-(1-(6-chloro-3-(hydroxymethyl)-1H-indole-2-carbonyl)piperidin-4-yl)-1-oxoinsoindolin-2-yl)piperidine-2,6-dione] are 15.2% and 8.5%.
In the same order, the values of `Cc1c(C(=O)N2CCC(c3ccc4c(c3)CN(C3CCC(=O)NC3=O)C4=O)CC2)[nH]c2cc(CN3CCNCC3)ccc12` (stereo not drawn) [Compound 106, 3-(5-(1-(3-methyl-6-(piperazin-1-ylmethyl)-1H-indole-2-carbonyl)piperidin-4-yl)-1-oxoinsoindolin-2-yl)piperidine-2,6-dione dichloride] are 42.8% and 33.6%.
As for `Cc1c(C(=O)N2CCC(c3ccc4c(c3)CN(C3CCC(=O)NC3=O)C4=O)CC2)[nH]c2cc(Cl)cc(Cl)c12` (stereo not drawn) [Compound 107, 3-(5-(1-(4,6-dichloro-3-methyl-1H-indole-2-carbonyl)piperidin-4-yl)-1-oxoinsoindolin-2-yl)piperidine-2,6-dione], on Helios (IKZF2), the remaining activity at 1 µM was determined as 56.6% and the remaining activity at 10 µM was found to be 51.5%.
Taken in the same sequence, the figures for `Cc1c(C(=O)N2CCC(c3ccc4c(c3)CN(C3CCC(=O)NC3=O)C4=O)CC2)[nH]c2cc(Cl)c(CN3CCNCC3)cc12` (stereo not drawn) [Compound 109, 3-(5-(1-(6-chloro-3-methyl-5-(piperazin-1-ylmethyl)-1H-indole-2-carbonyl)piperidin-4-yl)-1-oxoinsoindolin-2-yl)piperidine-2,6-dione dichloride] were 38.4% and 24.6%.
On to `COc1ccc2c(CN3CCOCC3)c(C(=O)N3CCC(c4ccc5c(c4)CN(C4CCC(=O)NC4=O)C5=O)CC3)[nH]c2c1` (stereo not drawn) [Compound 110, 3-(5-(1-(6-methoxy-3-(morpholinomethyl)-1H-indole-2-carbonyl)piperidin-4-yl)-1-oxoinsoindolin-2-yl)piperidine-2,6-dione], for which the remaining activity at 1 µM at Helios (IKZF2) worked out at 14.2%.
Same read-out and setting: in the case of `CN1CCN(Cc2c(C(=O)N3CCC(c4ccc5c(c4)CN(C4CCC(=O)NC4=O)C5=O)CC3)[nH]c3cc(Cl)ccc23)CC1` (stereo not drawn) [Compound 114, 3-(5-(1-(6-chloro-3-((4-methylpiperazin-1-yl)methyl)-1H-indole-2-carbonyl)piperidin-4-yl)-1-oxoinsoindolin-2-yl)piperidine-2,6-dione] it was 31.8%.
As to `Cc1c(C(=O)N2CCC(c3ccc4c(c3F)CN(C3CCC(=O)NC3=O)C4=O)CC2)[nH]c2cc(N3CCOCC3)ccc12` (stereo not drawn) [Compound 116, 3-(4-fluoro-5-(1-(3-methyl-6-morpholino-1H-indole-2-carbonyl)piperidin-4-yl)-1-oxoinsoindolin-2-yl)piperidine-2,6-dione], on IKZF2 (Helios), the Dmax was found to be 96% and the DC50 was in the range of 10 to 100 nM.
For `Cc1c(C(=O)N2CCC(c3ccc4c(c3F)CN(C3CCC(=O)NC3=O)C4=O)CC2)[nH]c2c(F)c(Cl)ccc12` (stereo not drawn) [Compound 117, 3-(5-(1-(6-chloro-7-fluoro-3-methyl-1H-indole-2-carbonyl)piperidin-4-yl)-4-fluoro-1-oxoinsoindolin-2-yl)piperidine-2,6-dione], the DC50 on IKZF2 (Helios) is under 10 nM.
As to `Cc1c(C(=O)N2CCC(c3ccc4c(c3F)CN(C3CCC(=O)NC3=O)C4=O)CC2)[nH]c2cc(C#N)ccc12` (stereo not drawn) [Compound 118, 2-(4-(2-(2,6-dioxopiperidin-3-yl)-4-fluoro-1-oxoindolin-5-yl)piperidine-1-carbonyl)-3-methyl-1H-indole-6-carbonitrile], at IKZF2 (Helios), the Dmax was 100% and the DC50 is under 10 nM.
As to `Cc1c(C(=O)N2CCC(c3ccc4c(c3F)CN(C3CCC(=O)NC3=O)C4=O)CC2)[nH]c2cc(Cl)c(C#N)cc12` (stereo not drawn) [Compound 119, 6-chloro-2-(4-(2-(2,6-dioxopiperidin-3-yl)-4-fluoro-1-oxoindolin-5-yl)piperidine-1-carbonyl)-3-methyl-1H-indole-5-carbonitrile], at IKZF2 (Helios), the Dmax amounted to 92% and the DC50 was in the range of 10 to 100 nM.
Consider `Cc1c(C(=O)N2CCC(c3ccc4c(c3F)CN(C3CCC(=O)NC3=O)C4=O)CC2)[nH]c2cc(C#N)c(F)cc12` (stereo not drawn) [Compound 120, 2-(4-(2-(2,6-dioxopiperidin-3-yl)-4-fluoro-1-oxoindolin-5-yl)piperidine-1-carbonyl)-5-fluoro-3-methyl-1H-indole-6-carbonitrile], for which, on IKZF2 (Helios), the DC50 lay within 10 to 100 nM.
On the same count and under the same terms, in the case of `Cc1c(C(=O)N2CCC(c3ccc4c(c3F)C(=O)N(C3CCC(=O)NC3=O)C4=O)CC2)[nH]c2cc(Cl)ccc12` (stereo not drawn) [Compound 121, 5-(1-(6-chloro-3-methyl-1H-indole-2-carbonyl)piperidin-4-yl)-2-(2,6-dioxopiperidin-3-yl)-4-fluoroisoindoline-1,3-dione] it was 100 to 1000 nM.
As for `Cc1c(C(=O)N2CCC(c3ccc4c(c3F)CN(C3CCC(=O)NC3=O)C4=O)CC2)[nH]c2c(F)c(C#N)ccc12` (stereo not drawn) [Compound 122, 2-(4-(2-(2,6-dioxopiperidin-3-yl)-4-fluoro-1-oxoindolin-5-yl)piperidine-1-carbonyl)-7-fluoro-3-methyl-1H-indole-6-carbonitrile], the remaining activity at 10 µM on Helios (IKZF2) was found to be 11.2%.
Take `Cc1c(C(=O)N2CCC(c3ccc4c(c3F)CN(C3CCC(=O)N(COC(=O)C(C)(C)C)C3=O)C4=O)CC2)[nH]c2cc(Cl)ccc12` (stereo not drawn) [Compound 123, (3-(5-(1-(6-chloro-3-methyl-1H-indole-2-carbonyl)piperidin-4-yl)-4-fluoro-1-oxoinsoindolin-2-yl)-2,6-dioxopiperidin-1-yl)methyl pivalate]: the remaining activity at 10 µM on Helios (IKZF2) came to 14.3%.
